{"source": "ChEMBL document CHEMBL6078668", "about": "“Synthesis and biological evaluation of lappaconitine analogues as potential anti-neuroinflammatory agents by side chain modification and scaffold hopping strategy” (Bioorg Med Chem, 2025)", "key": {"BV-2 [1]": {"test_system": "BV-2", "assay": "Inhibition of IkappaB phosphorylation in LPS-stimulated C57BL/6 mouse BV-2 cells at 30 to 60 uM preincubated with compound for 4 hrs followed by LPS stimulation by Western blot analysis", "format": "cell-based", "settings": "dose 30-60 µM"}, "BV-2 [2]": {"test_system": "BV-2", "assay": "Cytotoxicity against C57BL/6 mouse BV-2 cells assessed as effect on cell viability at 30 to 60 uM incubated for 24 hrs by MTT assay", "format": "toxicity, cell-based", "settings": "bv-2, 24 h, dose 30-60 µM"}, "[3]": {"assay": "Cytotoxicity against C57BL/6 mouse BV-2 cells assessed as survival rate at 30 uM incubated for 24 hrs by MTT assay relative to control", "format": "toxicity, cell-based", "settings": "read-out: Survival"}, "BV-2 [4]": {"test_system": "BV-2", "assay": "Anti-neuroinflammatory activity against LPS-stimulated C57BL/6 mouse BV-2 cells assessed as decrease in IL-6 expression level preincubated with compound for 4 hrs followed by LPS addition and measured after 24 hrs by ELISA", "format": "functional, cell-based", "settings": "dose 30-60 µM, time 28.0 hrs"}, "BV-2 [5]": {"test_system": "BV-2", "assay": "Anti-neuroinflammatory activity against LPS-stimulated C57BL/6 mouse BV-2 cells assessed as downregulation of COX-2 mRNA expression level at 30 to 60 uM preincubated with compound for 4 hrs followed by LPS addition and measured after 24 hrs by RT-PCR analysis", "format": "functional, cell-based", "settings": "dose 30-60 µM, time 28.0 hrs"}, "[6]": {"assay": "Acute toxicity in Kunming mouse assessed as histological abnormalities in kidney at 250 mg/kg, po measured after 14 days by H and E staining based analysis", "format": "organism-based", "settings": "in vivo, 336 h, time 14 day"}, "[7]": {"assay": "Acute toxicity in Kunming mouse assessed as histological abnormalities in lung at 250 mg/kg, po measured after 14 days by H and E staining based analysis", "format": "organism-based", "settings": "in vivo, 336 h, time 14 day"}, "BV-2 [8]": {"test_system": "BV-2", "assay": "Anti-neuroinflammatory activity against LPS-stimulated C57BL/6 mouse BV-2 cells assessed as downregulation of iNOS mRNA expression level at 30 to 60 uM preincubated with compound for 4 hrs followed by LPS addition and measured after 24 hrs by RT-PCR analysis", "format": "functional, cell-based", "settings": "dose 30-60 µM, time 28.0 hrs"}, "[9]": {"assay": "Acute toxicity in Kunming mouse assessed as histological abnormalities in spleen at 250 mg/kg, po measured after 14 days by H and E staining based analysis", "format": "organism-based", "settings": "in vivo, 336 h, time 14 day"}, "BV-2 [10]": {"test_system": "BV-2", "assay": "Anti-neuroinflammatory activity against LPS-stimulated C57BL/6 mouse BV-2 cells assessed as decrease in IL-1beta mRNA expression level at 30 to 60 uM preincubated with compound for 4 hrs followed by LPS addition and measured after 24 hrs by RT-PCR analysis", "format": "functional, cell-based", "settings": "dose 30-60 µM, time 28.0 hrs"}, "[11]": {"assay": "Acute toxicity in Kunming mouse assessed as histological abnormalities in heart at 250 mg/kg, po measured after 14 days by H and E staining based analysis", "format": "organism-based", "settings": "in vivo, 336 h, time 14 day"}, "BV-2 [12]": {"test_system": "BV-2", "assay": "Downregulation of TLR4 protein expression in C57BL/6 mouse BV-2 cells at 30 to 60 uM preincubated with compound for 4 hrs followed by LPS stimulation by Western blot analysis", "format": "functional, cell-based", "settings": "dose 30-60 µM"}, "[13]": {"assay": "Acute toxicity in Kunming mouse assessed as animal death at 325 to 928 mg/kg, po measured after 14 days", "format": "organism-based", "settings": "in vivo, 336 h, dose 325-928 mg/kg, time 14 day"}, "BV-2 [14]": {"test_system": "BV-2", "assay": "Inhibition of NFkappaB p65 nuclear translocation in LPS-stimulated C57BL/6 mouse BV-2 cells at 30 to 60 uM preincubated with compound for 4 hrs followed by LPS stimulation by Western blot analysis", "format": "cell-based", "settings": "dose 30-60 µM"}, "BV-2 [15]": {"test_system": "BV-2", "assay": "Anti-neuroinflammatory activity against LPS-stimulated C57BL/6 mouse BV-2 cells assessed as decrease in IL-1beta expression level preincubated with compound for 4 hrs followed by LPS addition and measured after 24 hrs by ELISA", "format": "functional, cell-based", "settings": "dose 30-60 µM, time 28.0 hrs"}, "BV-2 [16]": {"test_system": "BV-2", "assay": "Downregulation of MyD88 protein expression in C57BL/6 mouse BV-2 cells at 30 to 60 uM preincubated with compound for 4 hrs followed by LPS stimulation by Western blot analysis", "format": "functional, cell-based", "settings": "dose 30-60 µM"}, "BV-2 [17]": {"test_system": "BV-2", "assay": "Anti-neuroinflammatory activity against LPS-stimulated C57BL/6 mouse BV-2 cells assessed as inhibition of NO release at 30 to 60 uM preincubated with compound for 4 hrs followed by LPS addition and measured after 24 hrs by Griess reagent based assay", "format": "functional, cell-based", "settings": "dose 30-60 µM, time 28.0 hrs"}, "BV-2 [18]": {"test_system": "BV-2", "assay": "Anti-neuroinflammatory activity against LPS-stimulated C57BL/6 mouse BV-2 cells assessed as decrease in TNF-alpha expression level preincubated with compound for 4 hrs followed by LPS addition and measured after 24 hrs by ELISA", "format": "functional, cell-based", "settings": "dose 30-60 µM, time 28.0 hrs"}, "BV-2 [19]": {"test_system": "BV-2", "assay": "Anti-neuroinflammatory activity against LPS-stimulated C57BL/6 mouse BV-2 cells assessed as decrease in TNF-alpha mRNA expression level at 30 to 60 uM preincubated with compound for 4 hrs followed by LPS addition and measured after 24 hrs by RT-PCR analysis", "format": "functional, cell-based", "settings": "dose 30-60 µM, time 28.0 hrs"}, "[20]": {"assay": "Acute toxicity in Kunming mouse assessed as histological abnormalities in liver at 250 mg/kg, po measured after 14 days by H and E staining based analysis", "format": "organism-based", "settings": "in vivo, 336 h, time 14 day"}, "BV-2 [21]": {"test_system": "BV-2", "assay": "Anti-neuroinflammatory activity against LPS-stimulated C57BL/6 mouse BV-2 cells assessed as decrease in IL-6 mRNA expression level at 30 to 60 uM preincubated with compound for 4 hrs followed by LPS addition and measured after 24 hrs by RT-PCR analysis", "format": "functional, cell-based", "settings": "dose 30-60 µM, time 28.0 hrs"}, "BV-2 [22]": {"test_system": "BV-2", "assay": "Anti-neuroinflammatory activity against LPS-stimulated C57BL/6 mouse BV-2 cells assessed as inhibition of NO release at 30 uM preincubated with compound for 4 hrs followed by LPS addition and measured after 24 hrs by Griess reagent based assay relative to control", "format": "functional", "settings": "C57BL/6, BV-2, time 28 hrs"}, "[23]": {"assay": "Acute toxicity in po dosed Kunming mouse assessed as lethal dose measured after 14 days", "format": "organism-based", "settings": "in vivo, time 14 day"}, "BV-2 [24]": {"test_system": "BV-2", "assay": "Anti-neuroinflammatory activity against LPS-stimulated C57BL/6 mouse BV-2 cells assessed as downregulation of iNOS protein expression level by Western blot analysis", "format": "functional, cell-based", "settings": "dose 30-60 µM"}, "BV-2 [25]": {"test_system": "BV-2", "assay": "Anti-neuroinflammatory activity against LPS-stimulated C57BL/6 mouse BV-2 cells assessed as downregulation of COX-2 protein expression level by Western blot analysis", "format": "functional, cell-based", "settings": "dose 30-60 µM"}, "BV-2 [26]": {"test_system": "BV-2", "assay": "Anti-neuroinflammatory activity against LPS-stimulated C57BL/6 mouse BV-2 cells assessed as inhibition of NO release preincubated with compound for 4 hrs followed by LPS addition and measured after 24 hrs by Griess reagent based assay", "format": "functional, cell-based", "settings": "C57BL/6, BV-2"}, "[27]": {"assay": "Acute toxicity in Kunming mouse assessed as animal death at 250 mg/kg, po measured after 14 days", "format": "organism-based", "settings": "in vivo, 336 h, time 14 day"}}, "note": "Calls of active or inactive are those of the source. The calls are words filed in the database; no cut-off is given here."}
{"smiles": "CCN1C[C@]2(OC(=O)c3ccccc3NC(=O)S(=O)(=O)c3cccc(F)c3)CC[C@H](OC)[C@]34C1[C@@H](C[C@H]23)[C@@]1(O)C[C@H](OC)[C@H]2C[C@@H]4[C@]1(O)[C@H]2OC", "values": [{"measurement": "inhibition", "setting": "BV-2 [1]", "result": "Active"}, {"measurement": "Activity", "setting": "BV-2 [2]", "result": "Non-toxic"}, {"measurement": "viability at 24 h, 30 µM", "setting": "[3]", "result": 107, "unit": "%"}, {"measurement": "Activity", "setting": "BV-2 [4]", "result": "Dose-dependent-effect"}, {"measurement": "Activity", "setting": "BV-2 [5]", "result": "Active"}, {"measurement": "Activity", "setting": "[6]", "result": "Non-toxic"}, {"measurement": "Activity", "setting": "[7]", "result": "Non-toxic"}, {"measurement": "Activity", "setting": "BV-2 [8]", "result": "Active"}, {"measurement": "Activity", "setting": "[9]", "result": "Non-toxic"}, {"measurement": "Activity", "setting": "BV-2 [10]", "result": "Active"}, {"measurement": "Activity", "setting": "[11]", "result": "Non-toxic"}, {"measurement": "Activity", "setting": "BV-2 [12]", "result": "Active"}, {"measurement": "Activity", "setting": "[13]", "result": "Toxic"}, {"measurement": "inhibition", "setting": "BV-2 [14]", "result": "Active"}, {"measurement": "Activity", "setting": "BV-2 [15]", "result": "Dose-dependent-effect"}, {"measurement": "Activity", "setting": "BV-2 [16]", "result": "Active"}, {"measurement": "Activity", "setting": "BV-2 [17]", "result": "Active"}, {"measurement": "Activity", "setting": "BV-2 [18]", "result": "Dose-dependent-effect"}, {"measurement": "Activity", "setting": "BV-2 [19]", "result": "Active"}, {"measurement": "Activity", "setting": "[20]", "result": "Non-toxic"}, {"measurement": "Activity", "setting": "BV-2 [21]", "result": "Active"}, {"measurement": "inhibition at 30 µM", "setting": "BV-2 [22]", "result": 85.8, "unit": "%"}, {"measurement": "LD50 at 336 h", "setting": "[23]", "result": 508, "unit": "mg/kg"}, {"measurement": "Activity", "setting": "BV-2 [24]", "result": "Dose-dependent-effect"}, {"measurement": "Activity", "setting": "BV-2 [25]", "result": "Dose-dependent-effect"}, {"measurement": "IC50", "setting": "BV-2 [26]", "result": 9.98, "unit": "µM"}, {"measurement": "Activity", "setting": "[27]", "result": "Non-toxic"}]}
